Read-outs that look alike come from different tables or passages of the source.
Columns and labels:
Drosophila melanogaster = assay: Drosophila test; type: in vivo; settings: 24 h, after 1 day, read-out: Degree of destruction in % after 1 day; for mortality at 0.001 % strength: 0.001% by weight active compound; for mortality at 0.01 % strength: 0.01% by weight active compound
Protocol: Solvent: 3 parts by weight of dimethylformamide
(§1) Emulsifier: 1 part by weight of alkylaryl polyglycol ether
To produce a suitable preparation of active compound, 1 part by weight of the active compound was mixed with the stated amount of solvent containing the stated amount of emulsifier, and the concentrate was diluted with water to the desired concentration.
1 cm^3 of the preparation of the active compound was applied with a pipette to a filter paper disc of 7 cm diameter. The wet disc was placed over the orifice of a glass vessel containing 50 vinegar flies (Drosophila melanogaster) and covered with a glass plate.
After the specified periods of time, the destruction was determined in %. 100% means that all the flies were killed; 0% means that no flies were killed.

Myzus persicae = assay: Myzus test (long-term action after spraying); type: in vivo; settings: 0.05% active compound, Brassica oleracea
Protocol: (§2) Solvent: 3 parts by weight of acetone
as §1
(§3) To produce a suitable preparation of active compound, 1 part by weight of the active compound was mixed with the stated amount of solvent containing the stated amount of emulsifier and the concentrate was diluted with water to the desired concentration.
(§4) Cabbage plants (Brassica oleracea), which were about 10-15 cm high, were sprayed with the preparation of the active compound until dripping wet.
After the specified periods of time, the plants were infested with aphids (Myzus persicae). After intervals of 3 days, the destruction in % was determined. 100% means that all aphids had been killed whereas 0% means that none of the aphids had been killed.

insects and acarids = settings: in vivo; cited from earlier work
Toxicity test/peroral = settings: in vivo, po; albino rat, peroral; evaluation after 7 days
Protocol: Test animal: Albino rat (Rattus norvegicus)
To produce a suitable preparation of active compound, 3 parts by weight of active compound were mixed with 2.8 parts by weight of highly-dispersed silica and 4.2 parts by weight of talc. Suspensions which contain, in 1 ml of liquid, the amount of active compound to be applied per 100 g of animal weight, were prepared from the above active compound concentrate, with a little added powdered vegetable gum, by grinding with water. Dosing was effected volumetrically after weighing the test animals. A steel knob-ended probe was used for oral administration. The evaluation was carried out in each case after the end of the above-mentioned time interval, calculated from the administration of the active compound.
The LD50 values (dose of active compound at which 50% of the treated animals were killed) were determined in the usual manner from the mortality figures of the doses, which were varied in geometrical progression.

Laphygma exigua = assay: Laphygma test; type: in vivo
Protocol: as §2, §1
To produce a suitable preparation of active compound, 1 part by weight of the active compound was mixed with the stated amount of solvent and the stated amount of emulsifier and the concentrate was diluted with water to the desired concentration.
Cotton leaves (Gossypium hirsutum) were sprayed with the preparation of the active compound until dew-moist and were then infested with caterpillars of the owlet moth (Laphygma exigua).
After the specified periods of time, the destruction in % was determined.

Lucilia cuprina = assay: Test with parasitic fly larvae; type: in vivo; settings: 24 hours, Lucilia cuprina res., read-out: Degree of destruction in %
Protocol: Solvent: 35 parts by weight of ethylene polyglycol monomethyl ether
35 parts by weight of nonylphenol polyglycol ether
To produce a suitable preparation of active compound, 30 parts by weight of the active substance in question were mixed with the stated amount of solvent which contained the abovementioned proportion of emulsifier and the concentrate thus obtained was diluted with water to the desired concentration.
About 20 fly larvae (Lucilia cuprina) were introduced into a test tube which contains approximately 2 cm^3 of horse muscle. 0.5 ml of the preparation of active compound was applied to this horse meat. After 24 hours, the degree of destruction in % was determined. 100% means that all larvae had been killed and 0% means that no larvae had been killed.

Phaedon cochleariae = assay: Phaedon larvae test (long-term action after spraying); type: in vivo; settings: 0.05% active compound, Brassica oleracea
Protocol: as §2, §1, §3, §4
After the specified periods of time, the plants were infested with mustard beetle larvae (Phaedon cochleariae). After intervals of 3 days, the destruction in % was determined. 100% means that all beetle larvae had been killed whereas 0% means that none of the beetle larvae had been killed.

[1] = 96 h, 4 days, read-out: % destruction after 4 days
[2] = 192 h, 8 days, read-out: % destruction after 8 days
[3] = 0.001% by weight active compound
[4] = 0.01% by weight active compound

Work on `CCOP(=S)(OCC)OC(=CC(=O)OC(C)C)c1cccc([N+](=O)[O-])c1` [drawing 10] yielded a mortality at 0.001 % strength (Drosophila melanogaster) of 100% and a mortality at 0.01 % strength (Drosophila melanogaster) of 100%.
In the case of `CCOC(=O)C=C(OP(=S)(OCC)OCC)c1ccc([N+](=O)[O-])cc1` [drawing 23], the mortality at 0.05 % strength (Myzus persicae; [1]) is reported as 50% and the mortality at 0.05 % strength (Myzus persicae; [2]) is reported as 0%.
In the case of `CCOC(=O)C=C(OP(=S)(OCC)OCC)c1ccc([N+](=O)[O-])cc1` [Compound B, O,O-diethyl-O-[1-(4-nitrophenyl)-2-carbethoxyvinyl]-thionophosphoric acid ester], the “insecticidal and acaricidal properties” value (insects and acarids) is listed as “possess insecticidal and acaricidal properties”.
Work on `CCCOP(=S)(OCC)OC(=CC(=O)OCC)c1cccc([N+](=O)[O-])c1` (stereo not drawn) yielded an LD50 at 168 h (Toxicity test/peroral) of 50 to 100 mg/kg.
In the case of `CCOC(=O)C=C(OP(=S)(OC)OC)c1ccc([N+](=O)[O-])cc1` [drawing 12, reference compound], the “Degree of destruction in % after 3 days” value (Laphygma exigua; [3]) is reported as 0% and the “Degree of destruction in % after 3 days” value (Laphygma exigua; [4]) is reported as 100%.
`CCOC(=O)C=C(OP(=S)(OCC)OCC)c1ccc([N+](=O)[O-])cc1` [drawing 31] gave a mortality at 10 ppm (Lucilia cuprina) of over 50% and a mortality at 100 ppm (Lucilia cuprina) of 100%.
`CCOC(=O)C=C(OP(=S)(OCC)OCC)c1ccc([N+](=O)[O-])cc1` [drawing 26, reference compound] gave an LD50 at 168 h (Toxicity test/peroral) of 10 to 25 mg/kg.
For `CCOC(=O)C=C(OP(=S)(OCC)OCC)c1cccc([N+](=O)[O-])c1` [drawing 14], the “Degree of destruction in % after 3 days” value (Laphygma exigua; [3]) was 100% and the “Degree of destruction in % after 3 days” value (Laphygma exigua; [4]) was 100%.
For `CCCSP(=S)(OCC)OC(=CC(=O)OCC)c1cccc([N+](=O)[O-])c1` (stereo not drawn) [drawing 30], the mortality at 10 ppm (Lucilia cuprina) was 100%, the mortality at 30 ppm (Lucilia cuprina; 30 ppm) was 100% and the mortality at 100 ppm (Lucilia cuprina) was 100%.
In the case of `CCOP(=S)(OCC)OC(=CC(=O)OC(C)C)c1cccc([N+](=O)[O-])c1` [drawing 19], the “Degree of destruction in % after 3 days” value (Laphygma exigua; [3]) is reported as 100% and the “Degree of destruction in % after 3 days” value (Laphygma exigua; [4]) is reported as 100%.
With `CCOC(=O)C=C(OP(=S)(OC)OC)c1cccc([N+](=O)[O-])c1` the “Degree of destruction in % after 3 days” value (Laphygma exigua; [3]) was 85% and the “Degree of destruction in % after 3 days” value (Laphygma exigua; [4]) was 100%.
In the case of `CCOC(=O)C=C(OP(=S)(OC)OC)c1ccc([N+](=O)[O-])cc1` [drawing 8, reference compound], the mortality at 0.001 % strength (Drosophila melanogaster) is reported as 0% and the mortality at 0.01 % strength (Drosophila melanogaster) is reported as 100%.
In the case of `CCOC(=O)C=C(OP(=S)(OCC)OCC)c1ccc([N+](=O)[O-])cc1` [drawing 20], the mortality at 0.05 % strength (Phaedon cochleariae; [1]) is reported as 100%, the mortality at 0.05 % strength (Phaedon cochleariae; [2]) is reported as 100% and the mortality at 0.05 % strength (Phaedon cochleariae; 264 h, 11 days, read-out: % destruction after 11 days) is reported as 50%. For the same compound, the mortality at 0.05 % strength (Phaedon cochleariae; 360 h, 15 days, read-out: % destruction after 15 days) was 0%.
For `CCOC(=O)C=C(OP(=S)(OCC)c1ccccc1)c1cccc([N+](=O)[O-])c1` (stereo not drawn), the LD50 at 168 h (Toxicity test/peroral) was 50 to 100 mg/kg.
With `CCCSP(=S)(OCC)OC(=CC(=O)OCC)c1cccc([N+](=O)[O-])c1` (stereo not drawn) [drawing 27] the LD50 at 168 h (Toxicity test/peroral) was 100 to 250 mg/kg.
In the case of `CCOC(=O)C=C(OP(=S)(OCC)OCC)c1cccc([N+](=O)[O-])c1` [drawing 9], the mortality at 0.001 % strength (Drosophila melanogaster) is reported as 99% and the mortality at 0.01 % strength (Drosophila melanogaster) is reported as 100%.
In the case of `CCOC(=O)C=C(OP(=S)(OC)OC)c1ccc([N+](=O)[O-])cc1` [Compound A, O,O-dimethyl-O-[1-(4-nitrophenyl)-2-carbethoxyvinyl]-thionophosphoric acid ester], the “insecticidal and acaricidal properties” value (insects and acarids) is listed as “possess insecticidal and acaricidal properties”.
For `CCCOP(=S)(OCC)OC(=CC(=O)OC(C)C)c1cccc([N+](=O)[O-])c1` (stereo not drawn), the mortality at 0.001 % strength (Drosophila melanogaster) was 98% and the mortality at 0.01 % strength (Drosophila melanogaster) was 100%.
